From patent US20150305372A1, “FEED INTAKE OF RUMINANTS USING GREEN FODDER FLAVORS” (BASF SE, priority 2014, published 2015)
Entries after “also recorded” stand apart in the source; their conditions may differ. Marks after values point to notes of the source that are not given here.

Test system: dairy cows having a high milk performance (German Holstein cattle)
Test: Feeding study of trans-hex-2-enal and hexanal on feed intake, feed intake behavior, milk performance and milk composition of dairy cows
Assay type: in vivo
Details: for FMI (fresh matter intake): 4.3 g/cow/day in TMR via wheat bran premix, control 43.6; for FMI (fresh matter intake) / Milk protein yield / Milk fat yield / DMI (% of BW) / Milk protein / Milk fat / DMI / ECM (energy-corrected milk) / Milk yield / Eating period / Frequency of visits: LSQ means; for FMI (fresh matter intake) / DMI / Eating period: p < 0.05; for Milk protein yield / Milk fat yield / DMI (% of BW) / Milk protein / Milk fat / DMI / ECM (energy-corrected milk) / Milk yield / Eating period / Frequency of visits: 4.3 g/cow/day in TMR; for Milk protein yield: control 1.04; for Milk fat yield: control 1.16; for DMI (% of BW): control 3.3; for Milk protein: control 3.36; for Milk fat: control 3.69; for DMI: control 22.2; for ECM (energy-corrected milk): control 30.2; for Milk yield: control 31.6; for Eating period: control 184; for Frequency of visits: visits to feed trough per day, control 33.1, p < 0.0001; for dry matter intake (DMI) compared with the control group, in words: A vs control p<0.067, B vs control p<0.0234; for visits to the feed trough: control 33.1 visits per day; for fresh matter intake (FMI) compared with the control group, in words: p<0.0001; for more frequent visits to the feed trough than the control group: per day, versus control group
Method: The purpose of the present study is to establish whether 4.3 g/cow/day of trans-hex-2-enal or 4.3 g/cow/day of hexanal affect the DMI value, the milk performance, the milk composition or the feed intake behavior (duration, frequency, etc.) of dairy cows.
The start of the study was calendar week 18 of the experimental year and the end of the study was calendar week 24 of the same year. The feed consumption was determined by means of feed troughs with electronic weight determination, produced by Insentec B.V. (Marknesse, Netherlands). The system identifies each animal by scanning the respective transponder on the neck band of the respective cow using a light barrier. After identification, the animal is allowed free access to the feed trough and the amount of feed taken in on each visit to the trough is recorded automatically.
The system thus determines all visits of each cow to the feed trough, the respective feed intake and the duration of the respective visit. The feed troughs were filled once a day at about 06.30 hours in the morning with an amount of about 70 kg of feed, after the residual feed of the previous day had been removed. During the morning milking, the feed troughs were closed for cleaning for a period of 20 to 30 minutes.
The milk yield was determined individually during each milking process and recorded by the Herd Management Software DairyPlan C21 (GEA Farm Technologies, Boenen, Germany). The cows were milked twice daily at 05.00 hours in the morning and 15.30 hours in the afternoon. Fresh water was freely available at all times.
Every Monday, after each milking, milk samples were taken and, for each cow, the milk composition (fat, protein, somatic cell count) was determined. The energy-corrected milk value (ECM) was determined according to the following equation: […]
All of the cows received a total mixed ration (TMR) (table 2) having a calculated mean daily feed intake of 22 kg of dry matter (DM). Trans-hex-2-enal and hexanal were added to the TMR and thus fed by a premix with wheat bran (trans-hex-2-enal/wheat bran for group A and hexanal/wheat bran for group B).
Samples of the TMR were withdrawn daily from each of the rations, combined to form a weekly sample and frozen until determination of the DM content of the TMRs. Samples of all feed components were taken every 14 days, frozen and pooled over the entire feeding trial up until laboratory analysis.
A standard model for statistical analysis using all parameters was adapted to the weekly data. This is a general, linear, mixed model with the cow as a chance effect and containing the following co-variables:
For the treatment effect, an “overall” P value was presented, and also a P value for the differences between the groups, which were tested both adapted and also non-adapted by means of the Tukey test.

SMILES | daily FMI value, mean (4.3 g/cow/day) | daily milk production and milk composition compared with the control group, in words (4.3 g/cow/day) | FMI (fresh matter intake) | Milk protein yield | Milk fat yield | DMI (% of BW) | Milk protein | Milk fat | DMI | ECM (energy-corrected milk) | Milk yield | Eating period | Frequency of visits | dry matter intake (DMI) compared with the control group, in words (4.3 g/cow/day) | visits to the feed trough (4.3 g/cow/day) | fresh matter intake (FMI) compared with the control group, in words (4.3 g/cow/day) | more frequent visits to the feed trough than the control group (4.3 g/cow/day)
CCCCCC=O [Hexanal, hexanal] | 48.3 kg FMI per day | no differences | 48.3^b kg/d | 1.06 kg/day | 1.22 kg/day | 3.7 % of BW | 3.28% | 3.77% | 23.8^b kg/d | 31.3 kg/day | 32.7 kg/day | 212^b min | 45.2^b | significant advantage | 45.2 times per day | higher; also recorded: significantly increased | 37%
CCC/C=C/C=O [Trans-hex-2-enal] |  | no differences | 47.8^b kg/d | 1.06 kg/day | 1.19 kg/day | 3.6 % of BW | 3.26% | 3.66% | 23.5^ab kg/d | 31.1 kg/day | 33.1 kg/day | 206^ab min | 48.6^b | significant advantage | 48.6 times per day | higher; also recorded: significantly increased | 47%
